Data set [1] has as its system U2OS osteosarcoma cells. As to the kind of experiment: Induction of vacuoles (enlarged lysosomes). The data set is classed as cell-based. Conditions: within 4 hours. As for the experimental part: (§1) The WX8-family of PIKfyve specific inhibitors disrupts multiple events in lysosome homeostasis (Table 1): • prevent lysosome fission without preventing homotypic lysosome fusion, thereby causing cytoplasmic vacuolization (enlarged lysosomes). Cytoplasmic vacuolization is evident within 30 minutes and reversible for up to 24-48 hours (1Vacuoles). • inhibit trafficking of molecules into lysosomes, thereby reducing lysosomal activity • inhibit maturation of lysosome cathepsins, thereby reducing lysosomal activity • disrupt endosome trafficking, thereby reducing cellular uptake of extracellular materials • inhibit cell proliferation (^3Proliferation) • disrupt autophagy by preventing heterotypic fusion of lysosomes with autophagosomes (^2LC3-II), thereby inducing cell death in autophagy-dependent cancer cells (^4Viability) under conditions where non-malignant cells remain viable.

Data set [2] has as its system U2OS osteosarcoma cells. Kind of data set: LC3-II (autophagosome) accumulation. The data set is classed as cell-based. Conditions: Homo sapiens, within 4 to 8 hours, read-out: Accumulate LC3-II EC50. As for the experimental part: as §1
Data set [3] relates to U2OS osteosarcoma cells. Kind of data set: Suppression of cell proliferation. Conditions: Homo sapiens, 72 h, within 3 days, read-out: Inhibit Proliferation IC50. The data set is classed as cell-based. As for the experimental part:
as §1

Data set [4] deals with U2OS osteosarcoma cells. As to the kind of experiment: Reduction of cellular ATP levels (viability). The following applies: Homo sapiens, 96 h, within 4 days, read-out: Inhibit Viability IC50 (cellular ATP levels). The data set is classed as cell-based. As for the experimental part: as §1
Data set [5] concerns Vero E6 cells. It is filed as cell-based, African Green monkey.
Data set [6] deals with SARS-CoV-2.
A short description of data set [7]: in vitro. Conditions: African green monkey.
The subject of data set [8] is SARS-CoV-2. Kind of data set: microbe, parasite or virus in culture. The following applies: Severe acute respiratory syndrome coronavirus 2, Vero C1008, read-out: IC50 inhibition of SARS-CoV-2 infection.
Data set [9] has as its system Vero E6 cells. As to the kind of experiment: Vero E6 cell proliferation (attached cell count). The data set is classed as cell-based, African Green monkey. Conditions: Chlorocebus sabaeus, Vero C1008, 72 h; cultured for 3 days. As for the experimental part: (§2) FIG. 4. […] Vero E6 cells were plated at low density and then cultured overnight before adding WX8 at the concentrations indicated and then cultured for 3 days. (A) Attached cells were collected by trypsinization and counted. The fraction of cells (%) as well as the change in the total number of cells (fold change) relative to cells cultured in the presence of the WX8 vehicle control are given. (B) Attached and unattached cells were combined and stained with annexin-V to identify cells undergoing apoptosis and propidium iodide (PI) to identify dead cells that were permeable to a nuclear DNA stain. The cells were then analyzed by fluorescence activated cell sorting. Quadrant (Q) Q3 contained the unstained (live) cells. Q1 contained cells stained only with annexin-V (early apoptosis). Q2 contained cells stained with both annexin-V and PI (apoptotic dead cells). Q4 contained cells stained only with PI (necrotic dead cells). (C) Data were normalized to the fraction of live cells. Error bars indicate ±SEM. (D) Cells were first permeabilized, stained with PI and then analyzed by fluorescence activated cell sorting in order to quantify the fraction of cells with <2N DNA content. (E) The fraction of cells with <2N DNA content ±SEM.
(§3) WX8 inhibited Vero E6 cell proliferation with an IC50 of 0.4 μM (FIG. 4A). However, 100-fold higher concentrations of WX8 were required to induce cell death. […]

Data set [10] relates to Vero E6 cells. As to the kind of experiment: Vero E6 cell death, annexin-V / propidium iodide FACS. The data set is classed as cell-based, African Green monkey. Conditions: Chlorocebus sabaeus, Vero C1008, 72 h; 3 days, annexin-V and propidium iodide staining; read-out: IC50 Vero E6 cell death (fraction of live cells). As for the experimental part:
as §2, §3

For data set [11], the system named is Vero E6 cells. Kind of data set: Vero E6 loss of cellular DNA (PI FACS). The data set is classed as cell-based, African Green monkey. The following applies: Chlorocebus sabaeus, Vero C1008, 72 h, read-out: IP50 for loss of cellular DNA. As for the experimental part:
as §2, §3

Data set [12] deals with 'autophagy-addicted' human melanoma cells. The data set is classed as cell-based.
Data set [13] has as its target PIKfyve (Homo sapiens, UniProt Q9Y2I7). Kind of data set: biochemical.
Protocol: (§4) Each kinase was tagged with a unique DNA sequence that allowed the amount of protein bound to the solid support to be quantified by PCR. The mean equilibrium dissociation constant (Kd) for each compound was then determined for the top three hits (PIKFYVE, PIP4K2C and MTOR) from two independent titration curves. A dissociation constant (Kd) was calculated by measuring the amount of kinase captured on the solid support as a function of the test compound concentration (nM) on a log10 scale. Mean Kd values (±range) are given for each WX8-family member. The ratios of PIP4K2C/PIKfyve and mTOR/PIKfyve indicate the relative specificity of each compound for PIKfyve.
Data set [14] concerns the target T1, PIP4K2C (Homo sapiens, UniProt Q8TBX8).
T1 sequence (Q8TBX8 1-421): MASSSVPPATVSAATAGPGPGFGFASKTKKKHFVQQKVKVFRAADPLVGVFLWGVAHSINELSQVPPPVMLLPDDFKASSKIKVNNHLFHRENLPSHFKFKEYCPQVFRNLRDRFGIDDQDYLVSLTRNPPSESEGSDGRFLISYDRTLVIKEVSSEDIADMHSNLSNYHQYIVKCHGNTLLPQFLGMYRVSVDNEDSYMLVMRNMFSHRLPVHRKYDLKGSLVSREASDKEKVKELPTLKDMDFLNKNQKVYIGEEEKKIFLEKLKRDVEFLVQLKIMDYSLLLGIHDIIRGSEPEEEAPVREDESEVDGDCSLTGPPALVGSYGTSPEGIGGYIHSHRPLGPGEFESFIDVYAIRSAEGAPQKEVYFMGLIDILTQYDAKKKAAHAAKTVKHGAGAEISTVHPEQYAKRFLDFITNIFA
The following applies: ratio of Kd values.
Protocol: as §4

The structures appear in SMILES notation.

Chain of PIKfyve (Q9Y2I7 whole entry): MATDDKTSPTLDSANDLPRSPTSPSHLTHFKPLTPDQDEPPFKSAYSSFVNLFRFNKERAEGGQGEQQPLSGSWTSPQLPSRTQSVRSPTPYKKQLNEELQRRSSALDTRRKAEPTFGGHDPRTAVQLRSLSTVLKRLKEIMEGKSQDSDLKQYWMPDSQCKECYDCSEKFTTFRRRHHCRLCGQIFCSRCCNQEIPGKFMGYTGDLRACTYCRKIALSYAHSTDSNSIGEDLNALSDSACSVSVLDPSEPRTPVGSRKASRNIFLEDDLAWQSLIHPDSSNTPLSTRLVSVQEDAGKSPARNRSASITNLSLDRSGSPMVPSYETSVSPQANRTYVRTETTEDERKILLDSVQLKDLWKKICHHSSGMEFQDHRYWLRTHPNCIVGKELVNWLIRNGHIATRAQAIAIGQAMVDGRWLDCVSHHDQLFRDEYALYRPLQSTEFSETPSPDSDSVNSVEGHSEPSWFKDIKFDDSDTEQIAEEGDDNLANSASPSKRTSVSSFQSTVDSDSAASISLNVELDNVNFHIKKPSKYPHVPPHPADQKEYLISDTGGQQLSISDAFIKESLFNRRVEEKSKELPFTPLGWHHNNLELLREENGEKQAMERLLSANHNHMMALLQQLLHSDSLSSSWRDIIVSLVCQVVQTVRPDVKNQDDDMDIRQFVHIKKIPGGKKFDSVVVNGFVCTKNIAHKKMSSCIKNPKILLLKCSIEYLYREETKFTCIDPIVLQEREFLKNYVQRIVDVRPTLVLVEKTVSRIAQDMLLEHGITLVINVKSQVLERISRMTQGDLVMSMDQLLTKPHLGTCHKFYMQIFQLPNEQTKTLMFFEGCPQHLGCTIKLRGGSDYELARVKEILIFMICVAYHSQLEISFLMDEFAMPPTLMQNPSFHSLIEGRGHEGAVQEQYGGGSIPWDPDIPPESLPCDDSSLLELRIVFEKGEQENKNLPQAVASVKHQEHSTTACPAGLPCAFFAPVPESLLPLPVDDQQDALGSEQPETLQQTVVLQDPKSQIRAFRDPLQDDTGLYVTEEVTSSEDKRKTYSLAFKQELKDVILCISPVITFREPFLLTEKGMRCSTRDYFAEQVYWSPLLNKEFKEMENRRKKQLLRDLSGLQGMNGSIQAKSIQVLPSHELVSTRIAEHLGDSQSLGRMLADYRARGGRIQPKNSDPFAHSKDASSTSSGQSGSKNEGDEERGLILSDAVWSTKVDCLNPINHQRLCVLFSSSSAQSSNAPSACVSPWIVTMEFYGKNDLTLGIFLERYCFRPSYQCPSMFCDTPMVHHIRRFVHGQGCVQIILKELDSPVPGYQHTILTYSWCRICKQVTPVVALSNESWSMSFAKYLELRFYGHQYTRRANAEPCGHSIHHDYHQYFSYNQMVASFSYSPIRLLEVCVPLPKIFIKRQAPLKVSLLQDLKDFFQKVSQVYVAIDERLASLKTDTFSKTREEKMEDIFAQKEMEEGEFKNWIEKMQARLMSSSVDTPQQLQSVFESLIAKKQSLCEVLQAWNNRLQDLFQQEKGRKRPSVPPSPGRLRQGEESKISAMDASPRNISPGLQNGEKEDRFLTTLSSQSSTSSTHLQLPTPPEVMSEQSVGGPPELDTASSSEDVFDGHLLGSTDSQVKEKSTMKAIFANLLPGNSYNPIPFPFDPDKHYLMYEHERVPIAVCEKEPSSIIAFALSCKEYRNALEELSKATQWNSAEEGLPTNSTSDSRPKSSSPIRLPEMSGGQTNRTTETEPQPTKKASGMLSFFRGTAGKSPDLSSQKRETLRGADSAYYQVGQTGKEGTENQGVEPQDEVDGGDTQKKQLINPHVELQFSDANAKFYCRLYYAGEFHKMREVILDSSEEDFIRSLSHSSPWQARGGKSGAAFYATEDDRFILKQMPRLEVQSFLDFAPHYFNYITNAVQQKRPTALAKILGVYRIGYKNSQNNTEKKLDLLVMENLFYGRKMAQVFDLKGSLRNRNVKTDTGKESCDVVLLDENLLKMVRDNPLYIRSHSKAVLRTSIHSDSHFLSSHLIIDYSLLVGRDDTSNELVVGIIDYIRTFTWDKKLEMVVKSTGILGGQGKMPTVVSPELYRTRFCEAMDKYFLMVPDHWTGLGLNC

As to `Cc1cccc(/C=N/Nc2cc(N3CCOCC3)nc(N3CCOCC3)n2)c1` [NDF], in data set [1], the “Accumulate Vacuoles EC” value is 0.1 µM. For the same compound, the EC50 (usually the midpoint of the concentration-response curve) in [2] worked out at 1500 nM. The IC50 in [3] was 1100 nM; in data set [4] it was 420 nM; in data set [8], 499 nM. For the same compound, the “accumulation of cytoplasmic vacuoles” value in data set [5] is reported as “rapidly accumulated cytoplasmic vacuoles”. This compound showed a CC50/IC50 in [6] of 52. Moreover, the CC50 in data set [7] is 26300 nM.

Consider `C(=N\Nc1cc(N2CCOCC2)nc(N2CCOCC2)n1)/c1ccccc1` [WWL], for which the “Accumulate Vacuoles EC” value in data set [1] was 0.2 µM. In addition, in [2], the EC50 was found to be 6500 nM. In addition, the IC50 in data set [3] stood at 1600 nM; in data set [4], 2600 nM; in data set [8], 2440 nM. Besides, in data set [5], the “accumulation of cytoplasmic vacuoles” value was “rapidly accumulated cytoplasmic vacuoles”. The CC50/IC50 in [6] is on record as 16. The CC50 in data set [7] was 40300 nM.

As to `C1=Nc2ccccc2/C1=C/NNc1nc(Nc2ccccc2)nc(N2CCOCC2)n1` [WX8], in [1], the “Accumulate Vacuoles EC” value was determined as 0.01 µM. Further, in [2], the EC50 is 300 nM. For the same compound, the IC50 in data set [3] is 200 nM; in [4], 350 nM; in [9], 400 nM; in data set [10], 70000 nM; in data set [11], 60000 nM; in data set [8], 172 nM. In addition, the “accumulation of cytoplasmic vacuoles” value in [5] is reported as “rapidly accumulated cytoplasmic vacuoles”. For the same compound, the “lethality relative to chloroquine” value in data set [12] is 100 times. The compound also gave a CC50/IC50 in [6] of 245. In data set [7], the CC50 worked out at 42300 nM. Further, in data set [13], the Kd (usually a measure of binding affinity in units of concentration) was under 1 nM. Besides, in data set [14], the “affinity for PIKfyve relative to PIP4K2C (PIP4K2C/PIKfyve)” value is 366 fold.

For `Cc1cccc(/C=N/Nc2cc(N3CCOCC3)nc(OCCc3ccccn3)n2)c1` [Apilimod, reference compound], the “accumulation of cytoplasmic vacuoles” value in data set [5] is recorded as “rapidly accumulated cytoplasmic vacuoles”. Moreover, the CC50/IC50 in data set [6] is recorded as 22,027. The compound further registered a CC50 in [7] of 33000 nM. For the same compound, in [8], the IC50 is 1.5 nM.

Turning to `Fc1ccc(Nc2nc(N3CCOCC3)nc(N3CCOCC3)n2)cc1Cl` [XBA], the “Accumulate Vacuoles EC” value in [1] turned out to be 4 µM. Moreover, in data set [2], the EC50 worked out at 7500 nM. Further, the IC50 in [3] was 4000 nM; in data set [4] it was over 10000 nM.

As to `CCc1ccc(Nc2nc(N3CCOCC3)nc(N3CCOCC3)n2)cc1` [XB6], the “Accumulate Vacuoles EC” value in data set [1] came to 2 µM. Further, the EC50 in data set [2] is over 10000 nM. In addition, the values for the IC50 in data set [3] and in data set [4] were 7400 nM and 5300 nM, respectively.

The values above are taken from US20250268904A1 (priority 2020, published 2025).
